Data taken from ChEMBL document CHEMBL1159105, “Predictive screening model for potential vector-mediated transport of cationic substrates at the blood-brain barrier choline transporter” (Bioorg Med Chem Lett, 2010).

What was measured:
Rattus norvegicus = species: Rattus norvegicus; assay: Inhibition of blood brain barrier choline transporter-mediated [3H]choline uptake in Fischer-344 rat brain at 250 uM by perfusion technique; type: tissue-based
[1] = Inhibition of nAChR-mediated nicotine-induced [3H]dopamine release

`C1#Cc2ccc[n+](c2)CCCCCC[n+]2cccc(c2)C#CCCCCCCCC1` showed a logKi (Rattus norvegicus) of 1.53.

`Cc1cc(C)c[n+](CCCCCCCCCCC[n+]2cc(C)cc(C)c2)c1` showed a logKi (Rattus norvegicus) of 1.81.

In the case of `c1cc2c([n+](CCCc3ccc(-c4ccc(CCC[n+]5cccc6c5CCCC6)cc4)cc3)c1)CCCC2`, the logKi (Rattus norvegicus) is reported as 1.37.

`CC[N+](CC)(CC)CCCCCCCCCCCC[n+]1cccc(C)c1` gave a logKi (Rattus norvegicus) of 1.34.

For `Cc1cc(C)c[n+](CCCCc2ccc(CCCC[n+]3cc(C)cc(C)c3)cc2)c1`, the logKi (Rattus norvegicus) was 2.56.

For `Cc1ccc[n+](CCC#Cc2ccc(C#CCC[n+]3cccc(C)c3)cc2)c1`, the logKi (Rattus norvegicus) was 0.595.

For `c1ccc2c(c1)ccc[n+]2CCCCCC[n+]1cccc2ccccc21`, the logKi (Rattus norvegicus) was 1.26.

`OCCCc1ccc[n+](CCCc2ccc(-c3ccc(CCC[n+]4cccc(CCCO)c4)cc3)cc2)c1` showed a logKi (Rattus norvegicus) of 1.86.

Compound `c1cc(-c2ccc(CCC[n+]3ccc4c(c3)CCCC4)cc2)ccc1CCC[n+]1ccc2c(c1)CCCC2` has a logKi (Rattus norvegicus) of 1.2.

In the case of `Cc1cccc[n+]1CCCc1ccc(-c2ccc(CCC[n+]3ccccc3C)cc2)cc1`, the logKi (Rattus norvegicus) is reported as 2.

Work on `CCCCC#CCCCCCC[n+]1ccc(C)cc1` yielded a logKi (Rattus norvegicus) of 2.58.

In the case of `OCCCc1ccc[n+](CCCc2ccc(CCC[n+]3cccc(CCCO)c3)cc2)c1`, the logKi (Rattus norvegicus) is reported as 2.09.

Work on `Cc1cc(C)c[n+](CCC#Cc2ccc(C#CCC[n+]3cc(C)cc(C)c3)cc2)c1` yielded a logKi (Rattus norvegicus) of 0.867.

In the case of `C1#Cc2ccc[n+](c2)CCCCCCCCCCC[n+]2cccc(c2)C#CCCCCCCCC1`, the logKi (Rattus norvegicus) is reported as 1.18.

Work on `Cc1cc[n+](CCCCCCCCCCCC[n+]2ccc(C)cc2)cc1` yielded a logKi (Rattus norvegicus) of 1.93.

Work on `C1#Cc2ccc[n+](c2)CCCCCCCCC[n+]2cccc(c2)C#CCCCCCCCC1` yielded a logKi (Rattus norvegicus) of 0.146.

`Cc1cc[n+](CCCc2ccc(-c3ccc(CCC[n+]4ccc(C)cc4)cc3)cc2)cc1` gave a logKi (Rattus norvegicus) of 1.63.

With `Cc1cc[n+](CCC#Cc2ccc(C#CCC[n+]3ccc(C)c(C)c3)cc2)cc1C` the logKi (Rattus norvegicus) was 0.924.

For `C(#Cc1ccc(C#CCC[n+]2ccc3c(c2)CCCC3)cc1)CC[n+]1ccc2c(c1)CCCC2`, the logKi (Rattus norvegicus) was 0.732.

In the case of `Cc1cc[n+](C#Cc2ccc(-c3ccc(C#C[n+]4ccc(C)c(C)c4)cc3)cc2)cc1C`, the logKi (Rattus norvegicus) is reported as 1.98.

With `CN1CCCC1c1ccc[n+](CCCc2ccc(-c3ccc(CCC[n+]4cccc(C5CCCN5C)c4)cc3)cc2)c1` (stereo unspecified) the logKi (Rattus norvegicus) was 1.73.

Compound `Cc1ccc[n+](CCCCCCCCCCCC[n+]2cccc(C)c2)c1` has an IC50 [1] of 2 nM.

Compound `Cc1cc[n+](CCCc2ccc(-c3ccc(CCC[n+]4ccc(C)c(C)c4)cc3)cc2)cc1C` has a logKi (Rattus norvegicus) of 1.75.

Compound `CCCCc1ccc(CCCC[n+]2ccc(C)cc2)cc1` has a logKi (Rattus norvegicus) of 2.69.

`Cc1cc[n+](CCC#Cc2ccc(C#CCC[n+]3ccc(C)cc3)cc2)cc1` showed a logKi (Rattus norvegicus) of 0.929.

In the case of `CCCCC#CCCCCCC[n+]1cccc(C2CCCN2C)c1` (stereo unspecified), the logKi (Rattus norvegicus) is reported as 1.92.
